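Cells were grown in 96-well plates and exposed to each compound for 48 hours at five concentrations; endpoints were interpolated linearly between bracketing concentrations, or set to the highest concentration if not reached. Abbreviation: GI50, concentration required for 50% inhibition of growth. TGI marks complete inhibition of growth.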
Key:
Test in all cases: NCI anticancer screen, dose series, 48 h
RXF 393 renal = test system: RXF 393 renal
SF-295 CNS = test system: SF-295 CNS
TK-10 renal = test system: TK-10 renal
RPMI-8226 leukemia = test system: RPMI-8226 leukemia
MDA-MB-435 = test system: MDA-MB-435
COLO 205 colon = test system: COLO 205 colon
HCC-2998 colon = test system: HCC-2998 colon
KM12 colon = test system: KM12 colon
A549 NSCLC = test system: A549 NSCLC
CCRF-CEM leukemia = test system: CCRF-CEM leukemia
UO-31 renal = test system: UO-31 renal
SN12C renal = test system: SN12C renal
A498 renal = test system: A498 renal
M14 melanoma = test system: M14 melanoma
MALME-3M melanoma = test system: MALME-3M melanoma
SNB-19 CNS = test system: SNB-19 CNS
SK-MEL-28 melanoma = test system: SK-MEL-28 melanoma
MDA-MB-231 breast = test system: MDA-MB-231 breast
NCI-H23 lung = test system: NCI-H23 lung
NCI-H460 lung = test system: NCI-H460 lung
OVCAR-3 ovarian = test system: OVCAR-3 ovarian
NCI-H226 lung = test system: NCI-H226 lung
UACC-257 melanoma = test system: UACC-257 melanoma
BT-549 breast = test system: BT-549 breast
HCT-116 colon = test system: HCT-116 colon
SK-MEL-5 melanoma = test system: SK-MEL-5 melanoma
IGROV1 ovarian = test system: IGROV1 ovarian
ACHN renal = test system: ACHN renal
LOX IMVI melanoma = test system: LOX IMVI melanoma
SF-539 CNS = test system: SF-539 CNS
HL-60(TB) leukemia = test system: HL-60(TB) leukemia
DU-145 prostate = test system: DU-145 prostate
UACC-62 melanoma = test system: UACC-62 melanoma
SK-OV-3 ovarian = test system: SK-OV-3 ovarian
OVCAR-5 ovarian = test system: OVCAR-5 ovarian
NCI-H522 lung = test system: NCI-H522 lung
MCF7 breast = test system: MCF7 breast
HT29 colon = test system: HT29 colon
K-562 leukemia = test system: K-562 leukemia
PC-3 prostate = test system: PC-3 prostate
EKVX NSCLC = test system: EKVX NSCLC
SNB-75 CNS = test system: SNB-75 CNS
SR leukemia = test system: SR leukemia
HOP-92 NSCLC = test system: HOP-92 NSCLC
MOLT-4 leukemia = test system: MOLT-4 leukemia
HCT-15 colon = test system: HCT-15 colon
T-47D breast = test system: T-47D breast
786-0 renal = test system: 786-0 renal
HOP-62 NSCLC = test system: HOP-62 NSCLC
SK-MEL-2 melanoma = test system: SK-MEL-2 melanoma
SW-620 colon = test system: SW-620 colon
CAKI-1 renal = test system: CAKI-1 renal

With `CN1CCN(Cc2ccc(NC(=O)c3cncc(C#Cc4cnc5ccc(N6CCSCC6)nn45)c3)cc2C(F)(F)F)CC1` the GI50 (RXF 393 renal) was 141 nM, the TGI (RXF 393 renal) was 295 nM and the GI50 (SF-295 CNS) was 310 nM. The TGI (SF-295 CNS) was 1600 nM, the GI50 (TK-10 renal) was 319 nM and the TGI (TK-10 renal) was 1080 nM. For the same compound, the GI50 (RPMI-8226 leukemia) was 333 nM, the TGI (RPMI-8226 leukemia) was 2070 nM and the GI50 (MDA-MB-435) was 197 nM. It also gave a TGI (MDA-MB-435) of 1480 nM, a GI50 (COLO 205 colon) of 153 nM and a TGI (COLO 205 colon) of 429 nM. For the same compound, the GI50 (HCC-2998 colon) was 245 nM, the TGI (HCC-2998 colon) was 878 nM and the TGI (KM12 colon) was 340 nM. The GI50 (A549 NSCLC) was 272 nM, the TGI (A549 NSCLC) was 1580 nM and the GI50 (CCRF-CEM leukemia) was 303 nM. The GI50 (UO-31 renal) was 280 nM, the TGI (UO-31 renal) was 855 nM and the GI50 (SN12C renal) was 112 nM. It also gave a TGI (SN12C renal) of 702 nM, a GI50 (A498 renal) of 307 nM and a TGI (A498 renal) of 537 nM. It also gave a GI50 (M14 melanoma) of 156 nM, a TGI (M14 melanoma) of 760 nM and a GI50 (MALME-3M melanoma) of 202 nM. The TGI (MALME-3M melanoma) was 1070 nM, the GI50 (SNB-19 CNS) was 446 nM and the TGI (SNB-19 CNS) was 1350 nM. The GI50 (SK-MEL-28 melanoma) was 498 nM, the TGI (SK-MEL-28 melanoma) was 1850 nM and the GI50 (MDA-MB-231 breast) was 74.2 nM. It also gave a TGI (MDA-MB-231 breast) of 572 nM, a GI50 (NCI-H23 lung) of 156 nM and a TGI (NCI-H23 lung) of 595 nM. It also gave a GI50 (NCI-H460 lung) of 208 nM, a TGI (NCI-H460 lung) of 532 nM and a GI50 (OVCAR-3 ovarian) of 322 nM. The TGI (OVCAR-3 ovarian) was 1290 nM, the GI50 (NCI-H226 lung) was 51.8 nM and the TGI (NCI-H226 lung) was 780 nM. It also gave a GI50 (UACC-257 melanoma) of 599 nM, a TGI (UACC-257 melanoma) of 2340 nM and a GI50 (BT-549 breast) of 354 nM. For the same compound, the TGI (BT-549 breast) was 1240 nM, the GI50 (HCT-116 colon) was 112 nM and the TGI (HCT-116 colon) was 1160 nM. It also gave a GI50 (SK-MEL-5 melanoma) of 786 nM, a TGI (SK-MEL-5 melanoma) of 2080 nM and a GI50 (IGROV1 ovarian) of 168 nM. It also gave a TGI (IGROV1 ovarian) of 806 nM, a GI50 (ACHN renal) of 224 nM and a TGI (ACHN renal) of 1200 nM. The GI50 (LOX IMVI melanoma) was 152 nM, the TGI (LOX IMVI melanoma) was 535 nM and the GI50 (SF-539 CNS) was 93.6 nM. For the same compound, the TGI (SF-539 CNS) was 275 nM, the GI50 (HL-60(TB) leukemia) was 78.2 nM and the TGI (HL-60(TB) leukemia) was 520 nM. For the same compound, the GI50 (DU-145 prostate) was 202 nM, the TGI (DU-145 prostate) was 600 nM and the GI50 (UACC-62 melanoma) was 468 nM. The TGI (UACC-62 melanoma) was 1930 nM, the GI50 (SK-OV-3 ovarian) was 656 nM and the TGI (SK-OV-3 ovarian) was 2060 nM. It also gave a GI50 (OVCAR-5 ovarian) of 282 nM, a TGI (OVCAR-5 ovarian) of 1320 nM and a GI50 (NCI-H522 lung) of 132 nM. It also gave a TGI (NCI-H522 lung) of 340 nM, a GI50 (MCF7 breast) of 45.9 nM and a TGI (MCF7 breast) of 598 nM. The GI50 (HT29 colon) was 74.4 nM, the TGI (HT29 colon) was 554 nM and the TGI (K-562 leukemia) was 753 nM. The GI50 (PC-3 prostate) was 327 nM, the TGI (PC-3 prostate) was 1990 nM and the GI50 (EKVX NSCLC) was 100 nM. It also gave a TGI (EKVX NSCLC) of 877 nM, a GI50 (SNB-75 CNS) of 256 nM and a TGI (SNB-75 CNS) of 832 nM. It also gave a GI50 (SR leukemia) of 208 nM, a TGI (SR leukemia) of 712 nM and a GI50 (HOP-92 NSCLC) of 41.8 nM. For the same compound, the TGI (HOP-92 NSCLC) was 240 nM, the GI50 (MOLT-4 leukemia) was 198 nM and the TGI (MOLT-4 leukemia) was 666 nM. It also gave a GI50 (HCT-15 colon) of 172 nM, a TGI (HCT-15 colon) of 564 nM and a GI50 (T-47D breast) of 1400 nM. It also gave a TGI (T-47D breast) of 3890 nM, a GI50 (786-0 renal) of 189 nM and a TGI (786-0 renal) of 762 nM. The GI50 (HOP-62 NSCLC) was 338 nM, the TGI (HOP-62 NSCLC) was 1450 nM and the GI50 (SK-MEL-2 melanoma) was 260 nM. It also gave a TGI (SK-MEL-2 melanoma) of 745 nM, a GI50 (SW-620 colon) of 153 nM and a TGI (SW-620 colon) of 1090 nM. The GI50 (CAKI-1 renal) was 221 nM and the TGI (CAKI-1 renal) was 787 nM.
